Experimental data as given in US8404677B2, “Kinase inhibitors” (Genosco, priority 2009, dated 2013).

Experiments:
[1] = tested on: TNF-α release in THP-1 cells, IgG stimulation; test: SYK dependent TNF-α release assay (IgG stimulation); format: cell-based, human
Protocol: Compounds of the invention were tested for their TNF-α release effect on THP-1 cells. For SYK dependent TNF-α release assay (i.e., via IgG stimulation), THP-1 cells derived from human monocytic cells were obtained from the American Type Culture Collection (ATCC, Manassas, Va.). This cell line was maintained with an Roswell Park Memorial Institute (RPMI) medium (GIBCO™) containing 10 fetal bovine serum (FBS; GIBCO™) and 0.05 mM 2-mercaptoethanol. The THP-1 cells were seeded at 1×10^5 cells/100 μL/well into human IgG ([…], INVITROGEN™)-coated 96 well culture plate, and serially diluted compound was then added. After an 18-hour incubation period at 37° C., supernatants were collected for the determination of the TNF-α level by enzyme-linked immunosorbent assay (ELISA), and the remaining cells were subjected to an MTT (yellow tetrazolium salt) assay to determine the cytotoxic effects of compound.

HL-60(TB) = test: cells; format: cell-based; settings: HL-60(TB) (Leukemia)
EKVX = test: cells; format: cell-based; settings: EKVX (NSCLC)
HOP-92 = test: cells; format: cell-based; settings: HOP-92 (NSCLC)
NCI-H460 = test: cells; format: cell-based; settings: NCI-H460 (NSCLC)
SF-295 = test: cells; format: cell-based; settings: SF-295 (CNS Cancer)
SNB-19 = test: cells; format: cell-based; settings: SNB-19 (CNS Cancer)
MDA-MB-435 = test: cells; format: cell-based; settings: MDA-MB-435 (Melanoma)
UACC-257 = test: cells; format: cell-based; settings: UACC-257 (Melanoma)
OVCAR-4 = test: cells; format: cell-based; settings: OVCAR-4 (Ovarian Cancer)
A498 = test: cells; format: cell-based; settings: A498 (Renal Cancer)
UO-31 = test: cells; format: cell-based; settings: UO-31 (Renal Cancer)
MDA-MB-231/ATCC = test: cells; format: cell-based; settings: MDA-MB-231/ATCC (Breast Cancer)
HS 578T = test: cells; format: cell-based; settings: HS 578T (Breast Cancer)
BT-549 = test: cells; format: cell-based; settings: BT-549 (Breast Cancer)
T-47D = test: cells; format: cell-based; settings: T-47D (Breast Cancer)
PYK2 = PYK2 (Homo sapiens, UniProt Q14289); test: Inhibition of enzymatic kinase activity (LANCE Ulight); format: biochemical; design: Purified full-length human SYK, ZAP70, PIM1, PYK2; purchased Carna Biosciences; settings: at 1 μM concentration; read-out: PYK2 percentage inhibition
Protocol: (§1) Inhibition of Enzymatic SYK, ZAP70, PYK2, FAK, PIM1, RET, FLT3, JAK2 and LRRK2 Kinase Activity
(§2) Compounds of the invention were initially diluted to 10 mM in 100% DMSO (CALBIOCHEM™) for storage and made into kinase buffer solution to create a compound concentration ranging from 1 uM and 10 uM. Serial dilutions of compounds of the invention were dispensed into a 96-well plate (GREINER BIOSCIENCES™) at 6 μL each. Purified full-length human SYK, ZAP70, PIM1, PYK2 and truncated human FAK, RET, FLT3, JAK2, and LRRK2 (CARNA BIOSCIENCES™) were diluted in kinase buffer and added to the compound solutions and pre-incubated for 30 minutes at room temperature (1 hour for PYK2). […] The reaction mixture was incubated for 1 hour (2 hours for PYK2). Following the incubation, the stop solution made with EDTA, water, and Lance detection buffer ([…]™) was added (12 μL each) to stop phosphorylation.

SYK = SYK (Homo sapiens, UniProt P43405); test: as above; format: biochemical; design: Purified full-length human SYK, ZAP70, PIM1, PYK2; purchased Carna Biosciences; settings: at 1 μM concentration; read-out: SYK percentage inhibition
Protocol: as §1, §2

[2] = Homo sapiens, read-out: LC50 (the source's name)

Sequence of PYK2 (Q14289 whole entry): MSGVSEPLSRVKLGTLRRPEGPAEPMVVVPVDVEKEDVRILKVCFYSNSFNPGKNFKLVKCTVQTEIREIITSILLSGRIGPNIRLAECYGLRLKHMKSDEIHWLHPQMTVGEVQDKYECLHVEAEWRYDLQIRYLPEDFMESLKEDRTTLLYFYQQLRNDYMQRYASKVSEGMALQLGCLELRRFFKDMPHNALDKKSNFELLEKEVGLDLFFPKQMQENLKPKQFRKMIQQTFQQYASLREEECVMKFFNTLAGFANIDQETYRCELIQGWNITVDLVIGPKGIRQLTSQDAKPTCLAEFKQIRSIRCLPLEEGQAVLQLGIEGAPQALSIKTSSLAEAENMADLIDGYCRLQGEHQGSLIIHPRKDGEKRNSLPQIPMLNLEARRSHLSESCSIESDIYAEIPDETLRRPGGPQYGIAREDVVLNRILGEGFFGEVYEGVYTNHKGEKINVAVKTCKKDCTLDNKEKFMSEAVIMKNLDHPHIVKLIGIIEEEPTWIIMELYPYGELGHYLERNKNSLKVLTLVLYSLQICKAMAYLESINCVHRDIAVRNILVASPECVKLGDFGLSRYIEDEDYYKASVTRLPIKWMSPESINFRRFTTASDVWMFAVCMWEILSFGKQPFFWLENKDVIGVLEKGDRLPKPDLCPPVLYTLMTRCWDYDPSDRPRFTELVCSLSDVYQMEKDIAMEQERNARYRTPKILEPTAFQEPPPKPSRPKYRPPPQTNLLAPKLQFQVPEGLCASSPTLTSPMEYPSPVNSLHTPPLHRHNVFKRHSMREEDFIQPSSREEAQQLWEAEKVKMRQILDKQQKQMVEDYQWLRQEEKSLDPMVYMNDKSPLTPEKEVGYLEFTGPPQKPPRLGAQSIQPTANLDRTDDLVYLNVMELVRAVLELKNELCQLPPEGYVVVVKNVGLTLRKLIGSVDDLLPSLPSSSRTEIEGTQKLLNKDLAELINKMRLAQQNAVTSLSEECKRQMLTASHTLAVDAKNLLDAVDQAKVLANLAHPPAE

O=c1[nH]ccc2nc(N3CCC(O)CC3)nc(Nc3cccc(C(F)(F)F)c3)c12 [Compound 6, 2-(4-hydroxypiperidin-1-yl)-4-(3-(trifluoromethyl)phenylamino)pyrido[4,3-d]pyrimidine-5(6H)-one]
inhibition at 0.3 µM ([1]; Homo sapiens, IgG stimulation, At 0.3 μM, THP-1, read-out: Inhibition of TNF-α Release (percentage inhibition)): 51.9% | inhibition at 1 µM ([1]; Homo sapiens, IgG stimulation, At 1 μM, THP-1, read-out: Inhibition of TNF-α Release (percentage inhibition)): 83% | percentage inhibition of TNF-α release compared with R406 ([1]; IgG stimulated release, 0.3 μM): greater than those exhibited by R406 | TGI (HL-60(TB)): 5.01 µM | GI50 (HL-60(TB); Homo sapiens): 0.871 µM | IC50 (HL-60(TB); Homo sapiens): 1.86 µM | CC50 (HL-60(TB); [2]): 100 µM | TGI (EKVX): 12 µM | GI50 (EKVX; Homo sapiens): 2.88 µM | IC50 (EKVX; Homo sapiens): 7.59 µM | CC50 (EKVX; [2]): 100 µM | TGI (HOP-92): 100 µM | GI50 (HOP-92; Homo sapiens): 100 µM | IC50 (HOP-92; Homo sapiens): ≥ 100 µM | CC50 (HOP-92; [2]): 100 µM | GI50 (NCI-H460; Homo sapiens): 1.62 µM | IC50 (NCI-H460; Homo sapiens): 2.4 µM | CC50 (NCI-H460; [2]): 64.6 µM | TGI (NCI-H460): 15.1 µM | GI50 (SF-295; Homo sapiens): 2.95 µM | IC50 (SF-295; Homo sapiens): 6.76 µM | CC50 (SF-295; [2]): 56.2 µM | TGI (SF-295): 7.76 µM | GI50 (SNB-19; Homo sapiens): 18.2 µM | IC50 (SNB-19; Homo sapiens): 64.6 µM | CC50 (SNB-19; [2]): 100 µM | TGI (SNB-19): 100 µM | GI50 (MDA-MB-435; Homo sapiens): 1.29 µM | IC50 (MDA-MB-435; Homo sapiens): 2.57 µM | CC50 (MDA-MB-435; [2]): 9.77 µM | TGI (MDA-MB-435): 3.55 µM | GI50 (UACC-257; Homo sapiens): 4.27 µM | IC50 (UACC-257; Homo sapiens): 8.71 µM | CC50 (UACC-257; [2]): 45.7 µM | TGI (UACC-257): 12.9 µM | GI50 (OVCAR-4; Homo sapiens): 1.74 µM | IC50 (OVCAR-4; Homo sapiens): 9.12 µM | LC50 (OVCAR-4; Homo sapiens): 100 µM | TGI (OVCAR-4): 36.3 µM | TGI (A498): 100 µM | GI50 (A498; Homo sapiens): 2.51 µM | IC50 (A498; Homo sapiens): ≥ 100 µM | CC50 (A498; [2]): 100 µM | GI50 (UO-31; Homo sapiens): 0.776 µM | IC50 (UO-31; Homo sapiens): 16.2 µM | CC50 (UO-31; [2]): 100 µM | TGI (UO-31): 22.9 µM | GI50 (MDA-MB-231/ATCC; Homo sapiens): 12.3 µM | IC50 (MDA-MB-231/ATCC; Homo sapiens): ≥ 100 µM | CC50 (MDA-MB-231/ATCC; [2]): 100 µM | TGI (MDA-MB-231/ATCC): 100 µM | TGI (HS 578T): 14.1 µM | GI50 (HS 578T; Homo sapiens): 1.95 µM | IC50 (HS 578T; Homo sapiens): 43.7 µM | CC50 (HS 578T; [2]): 100 µM | TGI (BT-549): 4.37 µM | GI50 (BT-549; Homo sapiens): 1.58 µM | IC50 (BT-549; Homo sapiens): 4.57 µM | CC50 (BT-549; [2]): 14.1 µM | GI50 (T-47D; Homo sapiens, T47D): 3.09 µM | IC50 (T-47D; Homo sapiens, T47D): 8.51 µM | CC50 (T-47D; Homo sapiens, T47D, read-out: LC50 (the source's name)): 100 µM | TGI (T-47D): 26.3 µM | inhibition at 1 µM (PYK2): 83% | inhibition at 1 µM (SYK): 88%
